Here are results for 2 compounds from US20220000971A1, “METHODS AND COMPOUNDS FOR TARGETING SORTILIN RECEPTORS AND INHIBITING VASCULOGENIC MIMICRY” (TRANSFERT PLUS, S.E.C., priority 2018, published 2022).

For data set [1], the system named is MDA-MB-231 breast cancer cells. Kind of data set: [3H]-Thymidine Incorporation assay. Type of data set: cell-based. The note with it: Homo sapiens, GraphPad Prism. The protocol:
FIG. 19 depicts the in vitro anticancer properties of DoceKA against MDA-MB-231 breast cancer cells as determined using the [3H]-Thymidine Incorporation assay. Incorporated [3H]-Thymidine was plotted for each drug concentration. IC50 values (nM) were calculated using the GraphPad Prism software. […] is a set of graphs depicting the cell-cycle distribution of MDA-MB231 cells determined based on cellular DNA content using flow cytometry after 24 hours of treatment with 2 μM Docetaxel or 1 μM DoceKA.
(Incorporation of labelled thymidine or its analogues reports DNA synthesis.)

Data set [2] is described as follows: Blood cell / neutrophil counts after treatment. The format is in vivo, nude mice. The source says: FIG. 27A illustrates the effect on lymphocytes after 3 treatments with different concentrations of Docetaxel or DoceKA. FIG. 27B illustrates the effect on platelets after 3 treatments with different concentrations of Docetaxel or DoceKA. FIG. 27C illustrates the effect on neutrophils after 3 treatments with different concentrations of Docetaxel or DoceKA. IP means intraperitoneal administration, while IV means intravenous delivery.
FIG. 28 depicts the preliminary toxicity data on DoceKA, specifically, the neutrophils count (g/L) after DoceKA treatments at different dosages of Docetaxel or DoceKA.

The conditions of data set [3]: cited from earlier work.
In data set [4] the test system is ES-2 ovarian cancer cells. In words: In vitro vasculogenic mimicry, Matrigel tube formation assay (ES-2). Type of data set: cell-based, human.
The test system of a further data set is MDA-MB-231 TNBC cells. Kind of data set: In vitro vasculogenic mimicry, Matrigel tube formation assay (MDA-MB-231). Type of data set: cell-based. Conditions: MDA-MB231; FIG. 43. The protocol: (§1) In vitro vasculogenic mimicry of cancer cells was assessed using a Matrigel tube formation assay. In brief, each well of a 96-well plate was pre-coated with Matrigel. ES-2 ovarian cancer or MDA-MB-231 TNBC cell suspensions were seeded on top of Matrigel. 3D-tubular structures were analyzed and quantified using Wimasis Analysis software. Real-time cell migration was evaluated using the ×CELLigence system. Sortilin gene silencing was performed with specific siRNA. Effects of Doxorubicin-KA-peptide conjugate (DoxKA) KBA-106 represented by formula Acetyl-GVRAK(doxorubicin)AGVRN(Nle)FK(doxorubicin)SESY (Formula (XXVIII)) and Docetaxel-KA-peptide conjugate (DoceKA) represented by formula Acetyl-GVRAK(docetaxel)AGVRN(Nle)FK(docetaxel)SESY (Formula (XXIII)) targeting Sortilin on vasculogenic mimicry and cell migration were determined.

The nature of data set [5]: DoceKA pharmacokinetics in mice (plasma, UPLC/MS). The format is in vivo, CD-1 mice. Conditions: for half-life: iv, 50 mg/kg. The protocol:
FIG. 29A illustrates the plasma concentration for DoceKA and released Docetaxel (BDL) at progressive time intervals. FIG. 29B illustrates the PK in CD-1 mice. […] Plasma was collected at different time points. DoceKA and released Docetaxel were extracted with acetonitrile. DoceKA and released Docetaxel, were quantified by UPLC/MS using Paclitaxel as the internal standard: 2 μl and 10 μl of supematants were injected for DoceKA and Docetaxel directly without lyophilization.
PK data on Docetaxel were obtained from refs. 50 and 51. PK analysis for DoceKA was carried out using PK solutions software. Docetaxel PK in mice is biphasic and linear between 13-62 mg/kg. […] Both have similar half-lives. DoceKA has a lower clearance (CL) and Volume of distribution (Vd). These preliminary data need to be confirmed with more data (shorter and longer time points).

In data set [6] the test system is MDA-MB-231 xenograft tumor. In words: MDA-MB-231 xenograft tumor model. Conditions: murine MDA-MB-231 xenograft. The format is in vivo, CD1 nude mice. The protocol:
(§2) MDA-MB-231 cells were used as a TNBC cell model for in vitro and in vivo xenograft (CD1 nude mice) assays. Cell migration was assessed using the ×CELLigence real-time system, whereas MTT assay was used for cell proliferation analysis. Apoptosis biomarkers expression was assessed by immunoblotting.

For data set [7], the system named is MDA-MB-231 cells. In words: Real-time cell migration, xCELLigence (MDA-MB-231). Type of data set: cell-based. The protocol: as §1, §2
The subject of data set [8] is ES-2 ovarian cancer cells. In words: Real-time cell migration, xCELLigence (ES-2). Type of data set: cell-based, human. The protocol:
as §1

Data set [9] relates to MDA-MB-231 cells. Kind of data set: MTT cell proliferation assay. The format is cell-based. The protocol: as §2
Data set [10] concerns MDA-MB-231 cells. In words: Cell death / apoptosis (Annexin V-FITC/PI). The format is cell-based.
Experimental: MDA-MB-231 cells treated for 5 hours with control (vehicle) or with increasing concentrations of Docetaxel or DoceKA. Cells were then harvested and the rate of apoptosis was determined following staining with Annexin V-FITC and propidium iodide (PI). Cells were analyzed by flow cytometry.
In another data set the test system is tubulin. Kind of data set: Tubulin / microtubule polymerization. The format is biochemical. The protocol: FIGS. 23A and 23B depict the DoceKA impact on tubulin polymerization. More particularly, FIG. 23A illustrates cells treated with vehicle (DMSO), 2 μM Docetaxel or 1 μM DoceKA for 24 hours, fixed and immunostained with anti-a-tubulin antibody and imaged using confocal microscopy. […] FIG. 23B illustrates that in a fluorescence-based polymerization assay, the effect of Docetaxel (2 μM) and DoceKA (1 μM) on polymerization of purified tubulin was examined in vitro. Paclitaxel (2 μM) and Vinblastine (2 μM) were added as controls for tubulin-polymerizing and tubulin-depolymerizing agents, respectively. Tubulin assembly into microtubules was determined by an increase in fluorescence emission (Ex. 340-360 nm±20 nm; Em. 410-460 nm±20 nm).

Data set [11] relates to IL-6, Survivin, Bcl-xL and mutant p53. Kind of data set: Immunoblotting of pro-survival biomarkers. The note with it: MDA-MB-231. Type of data set: cell-based.
Excerpt: FIGS. 22A and 22B illustrate the molecular mechanism of cell death induction by DoceKA in MDA-MB-231 cells. FIG. 22A illustrates the immunoblotting experiment showing the expression level of IL-6, Survivin, Bcl-xi and mutated p53 in MDA-MB-231 cell after treatment with Docetaxel and DoceKA. GAPDH was used as a control. FIG. 22B data are representative of three independent experiments and the bar graphs show the densitometric quantification of IL-6, Survivin, Bcl-xL and p53 expression as compared to GAPDH. The mean value of the control group was set to be 1.0.
as §2

[12] abbreviates: CD-1, mouse, plasma, DoceKA 50 mg/kg, intravenous, preliminary data.

Each structure is given as a SMILES string. Where “and” joins values, the source holds several entries; their conditions need not be identical. Equal entries are not always repeated. Entries after “also recorded” stand apart in the source; their conditions may differ. Where two headings read alike, the source gives them in different places. Where a SMILES comes first, the peptide text is derived from it. [ ]: non-standard residue; d: D form. The star is where a group is joined. X1 = CC(=O)O[C@@]12CO[C@@H]1C[C@H](O)[C@@]1(C)C(=O)[C@H](O)C3=C(C)[C@@H](OC(=O)[C@H](OC(=O)CCC(=O)*)[C@@H](NC(=O)OC(C)(C)C)c4ccccc4)C[C@@](O)([C@@H](OC(=O)c4ccccc4)[C@H]21)C3(C)C; Nle = CCCC[C@H](N)C(=O)O

In general, IC50 refers to the concentration needed to halve the response being measured. Read a low IC50 as greater potency in that assay. The term Vd denotes the apparent volume that relates the amount in the body to the concentration in plasma or blood. One may read the Cmax as the maximum level reached in the sampled fluid or tissue. Compound `CC(=O)O[C@@]12CO[C@@H]1C[C@H](O)[C@@]1(C)C(=O)[C@H](O)C3=C(C)[C@@H](OC(=O)[C@H](O)[C@@H](NC(=O)OC(C)(C)C)c4ccccc4)C[C@@](O)([C@@H](OC(=O)c4ccccc4)[C@H]21)C3(C)C` [Docetaxel, docetaxel] had an IC50 in [1] of 0.68 nM. For the same compound, the neutrophils count result in data set [2] (four days after a single injection at the maximum tolerable dose) is reported as “drastic reduction in neutrophils count”. Besides, in [3] (Docetaxel 10 mg/kg, mice), the CL was 35 mL/min/kg, the volume of distribution (Vd) is 2.2 to 5 L/kg, the t½ adsorption distribution is recorded as 7 min and the t½ elimination is 72 min. Further, the “Reported Cmax” value in data set [3] (Docetaxel dosed at 20 mg/kg) is “about 20 μg/ml”. Further, in data set [3] (Docetaxel dosed at 20 mg/kg, read-out: Reported Cmax), the Cmax was roughly 25 µM.

One may read the AUC as the area under the concentration-time curve, a measure of exposure. High values mean high exposure, low ones low exposure. Broadly, the clearance is the volume of plasma or blood freed of the substance per unit of time. The low end stands for a low capacity for elimination, the high end for a high capacity for elimination. As for `CCCC[C@H](NC(=O)[C@H](CC(N)=O)NC(=O)[C@H](CCCNC(=N)N)NC(=O)[C@@H](NC(=O)CNC(=O)[C@H](C)NC(=O)[C@H](CCCCNC(=O)CCC(=O)O[C@@H](C(=O)O[C@H]1C[C@@]2(O)[C@@H](OC(=O)c3ccccc3)[C@@H]3[C@]4(OC(C)=O)CO[C@@H]4C[C@H](O)[C@@]3(C)C(=O)[C@H](O)C(=C1C)C2(C)C)[C@@H](NC(=O)OC(C)(C)C)c1ccccc1)NC(=O)[C@H](C)NC(=O)[C@H](CCCNC(=N)N)NC(=O)[C@@H](NC(=O)CNC(C)=O)C(C)C)C(C)C)C(=O)N[C@@H](Cc1ccccc1)C(=O)N[C@@H](CCCCNC(=O)CCC(=O)O[C@@H](C(=O)O[C@H]1C[C@@]2(O)[C@@H](OC(=O)c3ccccc3)[C@@H]3[C@]4(OC(C)=O)CO[C@@H]4C[C@H](O)[C@@]3(C)C(=O)[C@H](O)C(=C1C)C2(C)C)[C@@H](NC(=O)OC(C)(C)C)c1ccccc1)C(=O)N[C@@H](CO)C(=O)N[C@@H](CCC(=O)O)C(=O)N[C@@H](CO)C(=O)N[C@@H](Cc1ccc(O)cc1)C(=O)O` [DoceKA, Acetyl-GVRAK(docetaxel)AGVRN(Nle)FK(docetaxel)SESY] (Ac-GVRAK(X1)AGVRN[Nle]FK(X1)SESY-OH), the “concentration at which total number of loops and total tube length are inhibited” value in data set [4] (ES-2 on Matrigel) is reported as “low pM concentration; also recorded: very low pM concentration; also recorded: inhibited at low nM concentrations”. Further, the “vasculogenic mimicry inhibition compared to unconjugated drug” value in data set [4] (ES-2 on Matrigel, 12 hrs, equivalent concentration of free drug (Docetaxel 600 pM)) is “stronger inhibition of vasculogenic mimicry than unconjugated free drugs; also recorded: stronger inhibition of 3Dtubulare structures than Docetaxel alone”. Moreover, the “IC50 values for vasculogenic mimicry inhibition” value in data set [4] (Example 2, ovarian cancer and TNBC cells) is listed as “low nM to pM”. Further, in the data set with MDA-MB-231 TNBC cells, the “vasculogenic mimicry inhibition compared to Docetaxel alone” value is “stronger inhibition of vasculogenic mimicry”. Besides, the half-life in [5] (CD-1, mouse, plasma, DoceKA 50 mg/kg, intravenous, preliminary data, read-out: t½ adsorption distribution) was in the range of 6 to 20 min. Moreover, the half-life in data set [5] (CD-1, mouse, plasma, DoceKA 50 mg/kg, intravenous, preliminary data, read-out: t½ elimination) lay in the range of 90 to 150 min. In data set [5] (setting [12]), the AUC was 614 µM·h and 2.3e+06 ng·h/mL; the peak concentration (Cmax) was 1.6e+06 ng/mL and 437 µM; the Vd came out at 0.04 L/kg; the clearance was 0.3 mL/min/kg. In [5] (DoceKA 20 mg/kg intravenously, at 0.083, 0.25 and 4 hours), the “plasma concentration of released Docetaxel” value is given as “below the limit of quantification”. Besides, the “AUC (tissue exposure) of DoceKA compared to Docetaxel” value in [5] (higher for DoceKA) is on record as “about 29 fold”. Further, the “Cmax of DoceKA compared to Docetaxel” value in [5] (higher, compared to Docetaxel (20 mg/kg)) was “about 18 fold”. In addition, the neutrophils count entry in data set [2] (after six injections) is reported as “remained within normal limits”. Moreover, in data set [2] (nude mice, 3 treatments), the “effect on blood cells (lymphocytes, platelets, neutrophils)” value is recorded as “absence of effect”. The “tumor regression and survival compared to Docetaxel” value in data set [6] is on record as “greater tumor regression capacity with a prolonged survival”. Also, the cell migration entry in the data set on MDA-MB-231 cells [7] was “inhibited; also recorded: potent anti-proliferative and anti-migratory activities”. Also, the cell migration result in [8] was “inhibited”. Also, the cell proliferation entry in the data set with MDA-MB-231 cells [9] is “potent anti-proliferative and anti-migratory activities”. Further, the “cell death induction compared to free Docetaxel” value in the data set on MDA-MB-231 cells [10] is “faster and higher cell death mechanisms”. Besides, the microtubules polymerization result with tubulin was “altered microtubules polymerization”. Also, the “expression of pro-survival biomarkers” value in data set [11] is “down-regulation of IL-6, Survivin, Bcl-xL and mutant p53”.
